# In article PMC11392244, “Characterization of a unique catechol-O-methyltransferase as a molecular drug target in parasitic filarial nematodes” (PLOS Neglected Tropical Diseases, 2024):
# Values joined by “and” are separate entries in the source; they are usually repeats but may differ in a detail not shown here. Equal values may be shown once. Read-outs that look alike come from different tables or passages of the source.
# What was measured:
# mammalian cells = details: read-out: Cytotoxicity IC50, ref Zhang et al., [30]; cited from earlier work
# mice = details: ref [59]; cited from earlier work
# Gram-positive bacteria = tested on: Gram-positive bacteria; parameters: method as in PMID 4622052; details: in vitro and in vivo; ref [59]; cited from earlier work
# D. immitis microfilariae = assay: In vitro efficacy against live D. immitis microfilariae (motility, completely immotile %); format: cell-based, Dirofilaria immitis; details: for Completely Immotile Microfilariae (%): single experiments
# DiMT protein = format: biochemical, Dirofilaria immitis
smiles,measurement,setting,value
"CO[C@@H]1/C=C/O[C@@]2(C)Oc3c(C)c(O)c4c(c3C2=O)C(=N[C@@H]2CC[C@@H](O)O[C@H]2C)C=C(NC(=O)/C(C)=C\C(=O)[C@@H]2C[C@@H]2[C@H](O)[C@@H](C)[C@@H](O)[C@@H](C)[C@H](OC(C)=O)[C@@H]1C)C4=O [NSC177383, tolypomycin-Y]",IC50,mammalian cells,85.5 µM
same,toxicity in mice,mice,low toxicity
same,antimicrobial activities against Gram-positive bacteria,Gram-positive bacteria,strong antimicrobial activities
same,Mean completely Immotile (%),"D. immitis microfilariae; 10 µM, 0 h",0%
same,Mean completely Immotile (%),"D. immitis microfilariae; 10 µM, 24 h",7.83%
same,Mean completely Immotile (%),"D. immitis microfilariae; 10 µM, 48 h",18.5%
same,Mean completely Immotile (%),"D. immitis microfilariae; 10 µM, 72 h",27.33%
same,Mean completely Immotile (%),"D. immitis microfilariae; 10 µM, 96 h",38%
same,Mean completely Immotile (%),"D. immitis microfilariae; 10 µM, 120 h",56.33%
same,Mean completely Immotile (%),"D. immitis microfilariae; 25 µM, 0 h",0%
same,Mean completely Immotile (%),"D. immitis microfilariae; 25 µM, 24 h",25.33%
same,Mean completely Immotile (%),"D. immitis microfilariae; 25 µM, 48 h",33%
same,Mean completely Immotile (%),"D. immitis microfilariae; 25 µM, 72 h",71.33%
same,Mean completely Immotile (%),"D. immitis microfilariae; 25 µM, 96 h",91.33%
same,Mean completely Immotile (%),"D. immitis microfilariae; 40 µM, 0 h",0%
same,Mean completely Immotile (%),"D. immitis microfilariae; 40 µM, 24 h",57.67%
same,Mean completely Immotile (%),"D. immitis microfilariae; 40 µM, 48 h",87.67%
same,Mean completely Immotile (%),"D. immitis microfilariae; 40 µM, 72 h",96.67%
same,Mean completely Immotile (%),"D. immitis microfilariae; 40 µM, 96 h",100%
same,Mean completely Immotile (%),"D. immitis microfilariae; 40 µM, 120 h",100%
same,Mean completely Immotile (%),"D. immitis microfilariae; 50 µM, 0 h",0%
same,Mean completely Immotile (%),"D. immitis microfilariae; 50 µM, 24 h",64.67%
same,Mean completely Immotile (%),"D. immitis microfilariae; 50 µM, 48 h",93.67%
same,Mean completely Immotile (%),"D. immitis microfilariae; 50 µM, 72 h",100%
same,Mean completely Immotile (%),"D. immitis microfilariae; 50 µM, 96 h",100%
same,Mean completely Immotile (%),"D. immitis microfilariae; 50 µM, 120 h",100%
same,Mean completely Immotile (%),"D. immitis microfilariae; 75 µM, 0 h",0%
same,Mean completely Immotile (%),"D. immitis microfilariae; 75 µM, 24 h",95.33%
same,Mean completely Immotile (%),"D. immitis microfilariae; 75 µM, 48 h",100%
same,Mean completely Immotile (%),"D. immitis microfilariae; 75 µM, 72 h",100%
same,Mean completely Immotile (%),"D. immitis microfilariae; 75 µM, 96 h",100%
same,Mean completely Immotile (%),"D. immitis microfilariae; 75 µM, 120 h",100%
same,Mean completely Immotile (%),"D. immitis microfilariae; 100 µM, 0 h",0%
same,Mean completely Immotile (%),"D. immitis microfilariae; 100 µM, 24 h",100%
same,Mean completely Immotile (%),"D. immitis microfilariae; 100 µM, 48 h",100%
same,Mean completely Immotile (%),"D. immitis microfilariae; 100 µM, 72 h",100%
same,Mean completely Immotile (%),"D. immitis microfilariae; 100 µM, 96 h",100%
same,Mean completely Immotile (%),"D. immitis microfilariae; 100 µM, 120 h",100%
same,EC50,"D. immitis microfilariae; 96 h post-treatment, read-out: Anti-parasitic EC50",11.7 µM and 11.6 µM
same,Completely Immotile Microfilariae (%),"D. immitis microfilariae; 10 µM, 0 h",0%
same,Completely Immotile Microfilariae (%),"D. immitis microfilariae; 10 µM, 24 h",5% and 8.5% and 10%
same,Completely Immotile Microfilariae (%),"D. immitis microfilariae; 10 µM, 48 h",15% and 19.5% and 21%
same,Completely Immotile Microfilariae (%),"D. immitis microfilariae; 10 µM, 72 h",25% and 27% and 30%
same,Completely Immotile Microfilariae (%),"D. immitis microfilariae; 10 µM, 96 h",35% and 38% and 41%
same,Completely Immotile Microfilariae (%),"D. immitis microfilariae; 10 µM, 120 h",50% and 61% and 58%
same,Completely Immotile Microfilariae (%),"D. immitis microfilariae; 25 µM, 0 h",0%
same,Completely Immotile Microfilariae (%),"D. immitis microfilariae; 25 µM, 24 h",25% and 28% and 23%
same,Completely Immotile Microfilariae (%),"D. immitis microfilariae; 25 µM, 48 h",30% and 37% and 32%
same,Completely Immotile Microfilariae (%),"D. immitis microfilariae; 25 µM, 72 h",70% and 76% and 68%
same,Completely Immotile Microfilariae (%),"D. immitis microfilariae; 25 µM, 96 h",90% and 95% and 89%
same,Completely Immotile Microfilariae (%),"D. immitis microfilariae; 25 µM, 120 h",100%
same,Completely Immotile Microfilariae (%),"D. immitis microfilariae; 40 µM, 0 h",0%
same,Completely Immotile Microfilariae (%),"D. immitis microfilariae; 40 µM, 24 h",50% and 65% and 58%
same,Completely Immotile Microfilariae (%),"D. immitis microfilariae; 40 µM, 48 h",85% and 90% and 88%
same,Completely Immotile Microfilariae (%),"D. immitis microfilariae; 40 µM, 72 h",95% and 98% and 97%
same,Completely Immotile Microfilariae (%),"D. immitis microfilariae; 40 µM, 96 h",100%
same,Completely Immotile Microfilariae (%),"D. immitis microfilariae; 40 µM, 120 h",100%
same,Completely Immotile Microfilariae (%),"D. immitis microfilariae; 50 µM, 0 h",0%
same,Completely Immotile Microfilariae (%),"D. immitis microfilariae; 50 µM, 24 h",60% and 78% and 56%
same,Completely Immotile Microfilariae (%),"D. immitis microfilariae; 50 µM, 48 h",90% and 95% and 96%
same,Completely Immotile Microfilariae (%),"D. immitis microfilariae; 50 µM, 72 h",100%
same,Completely Immotile Microfilariae (%),"D. immitis microfilariae; 50 µM, 96 h",100%
same,Completely Immotile Microfilariae (%),"D. immitis microfilariae; 50 µM, 120 h",100%
same,Completely Immotile Microfilariae (%),"D. immitis microfilariae; 75 µM, 0 h",0%
same,Completely Immotile Microfilariae (%),"D. immitis microfilariae; 75 µM, 24 h",95% and 93% and 98%
same,Completely Immotile Microfilariae (%),"D. immitis microfilariae; 75 µM, 48 h",100%
same,Completely Immotile Microfilariae (%),"D. immitis microfilariae; 75 µM, 72 h",100%
same,Completely Immotile Microfilariae (%),"D. immitis microfilariae; 75 µM, 96 h",100%
same,Completely Immotile Microfilariae (%),"D. immitis microfilariae; 75 µM, 120 h",100%
same,Completely Immotile Microfilariae (%),"D. immitis microfilariae; 100 µM, 0 h",0%
same,Completely Immotile Microfilariae (%),"D. immitis microfilariae; 100 µM, 24 h",100%
same,Completely Immotile Microfilariae (%),"D. immitis microfilariae; 100 µM, 48 h",100%
same,Completely Immotile Microfilariae (%),"D. immitis microfilariae; 100 µM, 72 h",100%
same,Completely Immotile Microfilariae (%),"D. immitis microfilariae; 100 µM, 96 h",100%
same,Completely Immotile Microfilariae (%),"D. immitis microfilariae; 100 µM, 120 h",100%
same,effect on microfilariae,D. immitis microfilariae; up to 120 h of culture,killing effect
same,Mean Percent Inhibition,DiMT protein; 40 µM,17.3% and 18.1% and 14.9%
same,"Mean Percent Inhibition, Average",DiMT protein; 40 µM,16.8%
same,Mean Percent Inhibition,DiMT protein; 80 µM,30.5% and 30.7% and 34.4%
same,"Mean Percent Inhibition, Average",DiMT protein; 80 µM,31.9%
same,Mean Percent Inhibition,DiMT protein; 120 µM,45.9% and 41.2% and 40.2%
same,"Mean Percent Inhibition, Average",DiMT protein; 120 µM,42.4%
same,Mean Percent Inhibition,DiMT protein; 140 µM,50.6% and 45.4% and 42.2%
same,"Mean Percent Inhibition, Average",DiMT protein; 140 µM,46.1%
same,Mean Percent Inhibition,DiMT protein; 180 µM,63.6% and 62.4% and 64.2%
same,"Mean Percent Inhibition, Average",DiMT protein; 180 µM,63.4%
same,IC50,DiMT protein; read-out: IC 50 (μM ± SEM),140 ± 2.2 µM
